Results taken from patent US7605175B2, “Inhibitors of cyclin-dependent kinases, compositions and uses related thereto” (GPC Biotech AG, priority 2001, dated 2009).
Read-outs that look alike come from different tables or passages of the source.

Tests used:
Cdk2/cyclin E = target: T1, Cdk2/cyclin E (Homo sapiens, UniProt P24941); experiment: Biochemical kinase assay Cdk2/cyclin E; settings: Table 6
T1 construct: made in house; host or cells: Sf9 insect cells
Excerpt: (§1) Enzymes: Cdc2/cyclin B was obtained from commercial sources. Cdk2/his-cyclin Eshort was expressed in Sf9 cells. Cdk2/cyclin A, cdk4/cyclin D1, and cdk6/cyclin D2 were expressed in Sf9 cells. Protein kinase A (catalytic subunit, from bovine heart) and protein kinase C (mixed isozymes from rat brain) were obtained from commercial sources.
(§2) Substrates: Histone H1 was from commercial sources. GST-Rb is glutathione-S-trans-ferase fused to the N-terminal of residues 379-928 of the Rb protein.
(§3) Cdk2/cyclin E, Cdk2/cyclin A, Cdk4/cyclin D1, and Cdk6/cyclin D2 activity was determined using a glutathione-sepharose capture assay. The enzymes were expressed in Sf9 insect cells as heterodimers, and the substrate (GST-Rb) was glutathione-S-transferase fused to residues 379 to 928 of Rb retinoblastoma protein, expressed in E. coli. The assay solution contained 50 mM Tris.HCl, 10 mM MgCl2, 1 mM dithiothreitol, 50 μM adenosine triphosphate, 2 μCi [γ-^33P]adenosine triphosphate, 10% dimethylsulfoxide (from compounds), pH 7.5, 40 μg GST-Rb, and enzyme in a 100 μL volume. Compounds were added at various concentrations between 1 nM and 10 μM. The reaction was allowed to proceed for 15 min at 30° C. and was stopped by the addition of 70 μL of stop solution (237 mM disodium ethylene-diamine tetraacetate, 105 mM adenosine triphosphate, pH 8.0). The GST-Rb was captured by binding to glutathione-sepharose bead (Amersham) for 110 min, and the suspension was filtered through a glass fiber filter. After washing the retained beads five time with phosphate-buffered saline containing 0.3% (w/v) Tween-20, the amount of ^33P incorporated was determined by scintillation counting after adding 100 μL scintillant. Relative activity was determined by dividing the amount of radioactivity incorporated in the presence of compound by the amount of radioactivity incorporated in a control experiment containing DMSO alone but no compound. The background radioactivity, determined in an experiment containing 50 mM disodium ethylenediamine tetraacetate in place of compound, was subtracted from all results before calculations.

Cdk4/cyclin D1 = target: T2, Cdk4/cyclin D1 (Homo sapiens, UniProt P11802); experiment: Biochemical kinase assay Cdk4/cyclin D1; settings: Table 6
T2 construct: made in house; host or cells: Sf9 insect cells
Excerpt: as §1, §2, §3

Cdc2/cyclin B = target: T3, Cdc2/cyclin B (Homo sapiens, UniProt P06493); experiment: Biochemical kinase assay Cdc2/cyclin B; settings: Table 6
T3 construct: purchased
Excerpt: as §1, §2
Assays: Cdc2/cyclinB activity was determined by measuring incorporation of radio-activity from adenosine [γ-^32P]triphosphate into Histone H1 using a TCA precipitation assay. Cdc2/cyclin B kinase and Histone H1 were obtained from commercial sources. The final assay solution contained 50 mM Tris.HCl, 10 mM MgCl2, 1 mM dithiothreitol, 50 μM adenosine triphosphate, 2 μCi ^32P, 10% dimethylsulfoxide (from compounds), pH 7.5, 20 μg Histone H1, 6 U enzyme in a 50 μL volume. Compounds were added at various concentrations between 1 nM and 10 μM. The reaction was started with the addition of enzyme, allowed to proceed for 20 min at 30° C., and stopped by the addition of 20 μL of stop solution (237 mM disodium ethylenediamine tetraacetate, 105 mM adenosine triphosphate, pH 8.0). The protein was precipitated by the addition of 35 μL 70% (w/v) trichloroacetic acid, and the precipitate was captured on a 96-well glass fiber filter plate (Millipore, Inc.), which had been wet with 25% (w/v) trichloroacetic acid. The filter was washed ten times with 25% (w/v) trichloroacetic acid, and the amount of incorporated ^32P was determined by scintillation counting after adding 100 μL scintillant (Microscint 20, Packard Instruments). Relative activity was determined by dividing the amount of radioactivity incorporated in the presence of compound by the amount of radioactivity incorporated in a control experiment containing DMSO alone but no compound. The background radioactivity, determined in an experiment containing 50 mM EDTA in place of compound, was subtracted from all results before calculations.

HCT-116 cells = experiment: Calcein AM viability assay, HCT-116; type: cell-based; settings: Homo sapiens
Method: The potency of Cdk inhibitors, as measured by loss of cellular viability, was determined with the Calcein AM assay (Molecular Probes). Calcein AM is a substrate of intracellular esterases, which is cleaved only in viable cells to generate a fluorescent product that can be quantified with a fluorescent plate reader. The fluorescent signal is proportional to the number of viable cells, and thus loss of signal in response to the exposure of cells to Cdk inhibitors correlates with a loss of viability. This assay can distinguish cell cycle arrest, in which cells may still by viable, from loss of viability and is thus well suited for the evaluation of Cdk inhibitors. A compound that is a potent cytotoxic, may cause significant loss of cell viability in such assay.
Cellular IC50's were determined in the human colorectal carcinoma cell line, HCT-116, and the normal human fibroblast, IMR90. Protein adjusted IC50's were also determined in HCT-116.
HCT-116 or IMR90 cells were recovered from sub-confluent plates by trypsinization and 1,000 or 4,000 cells, respectively, were plated in 24-well dishes and incubated overnight at 37° C., 5% CO2. HCT-116 cells were cultured in RPMI-1640, 10% FCS, and IMR90 cells were cultured in Minimum Essential Medium-alpha, 10% FCS. After overnight incubation to allow adherence, the media was aspirated from each well and replaced with media containing a test compound at a concentration from 0 to 250 nM, spanning a total of 7 doses. The plates were returned to the incubator and cultured for an additional 72 hours (3 days). […] After 72-hours incubation with the test compound, the cells were washed twice with 1×PBS, taking special care to remove all residual buffer.
A 5 μM Calcein AM solution was prepared by dissolving a […] aliquot of Calcein (Molecular Probes catalog # C3100) in 50 μl DMSO. After the Calcein had completely dissolved (10 minutes at room temperature), it was diluted into 10 ml PBS. Calcein/PBS (0.5 ml) was added to each well. The plates were incubated for 75 minutes at 37° C. (protected from light) and the fluorescent signal was read on a fluorescent plate reader (excitation 485/20 and emission 530/25).

[1] = HCT-116, non-protein adjusted, Table 6, read-out: HCT-116 viability IC50

T3 sequence (P06493 whole entry, species assumed): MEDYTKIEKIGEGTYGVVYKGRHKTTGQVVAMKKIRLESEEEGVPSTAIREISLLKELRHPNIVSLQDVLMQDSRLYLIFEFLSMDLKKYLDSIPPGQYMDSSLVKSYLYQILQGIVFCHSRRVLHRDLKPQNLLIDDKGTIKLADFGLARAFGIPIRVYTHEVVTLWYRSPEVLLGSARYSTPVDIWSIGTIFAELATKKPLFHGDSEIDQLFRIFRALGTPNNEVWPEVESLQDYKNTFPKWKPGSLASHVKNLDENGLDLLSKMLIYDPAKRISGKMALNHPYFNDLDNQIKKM
T3 sequence (P14635 whole entry partner, species assumed): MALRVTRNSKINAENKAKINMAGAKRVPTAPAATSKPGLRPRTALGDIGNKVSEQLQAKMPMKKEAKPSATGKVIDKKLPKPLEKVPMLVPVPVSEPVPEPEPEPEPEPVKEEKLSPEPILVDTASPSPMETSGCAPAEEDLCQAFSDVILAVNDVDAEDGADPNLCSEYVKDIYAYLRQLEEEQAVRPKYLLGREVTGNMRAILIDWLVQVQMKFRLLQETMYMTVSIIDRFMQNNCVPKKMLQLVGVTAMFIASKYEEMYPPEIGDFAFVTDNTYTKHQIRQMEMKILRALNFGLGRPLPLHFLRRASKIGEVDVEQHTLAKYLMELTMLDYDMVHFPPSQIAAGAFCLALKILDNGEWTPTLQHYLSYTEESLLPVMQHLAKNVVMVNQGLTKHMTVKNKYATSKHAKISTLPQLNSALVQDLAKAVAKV
T2 sequence (P11802 whole entry, species assumed): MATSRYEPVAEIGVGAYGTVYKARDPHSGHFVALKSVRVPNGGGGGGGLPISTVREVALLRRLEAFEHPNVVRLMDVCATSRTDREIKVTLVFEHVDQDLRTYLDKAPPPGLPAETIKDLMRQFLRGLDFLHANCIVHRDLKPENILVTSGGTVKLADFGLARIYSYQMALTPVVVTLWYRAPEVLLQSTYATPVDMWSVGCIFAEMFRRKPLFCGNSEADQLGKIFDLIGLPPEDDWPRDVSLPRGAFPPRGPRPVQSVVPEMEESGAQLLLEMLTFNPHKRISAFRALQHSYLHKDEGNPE
T2 sequence (P24385 whole entry partner, species assumed): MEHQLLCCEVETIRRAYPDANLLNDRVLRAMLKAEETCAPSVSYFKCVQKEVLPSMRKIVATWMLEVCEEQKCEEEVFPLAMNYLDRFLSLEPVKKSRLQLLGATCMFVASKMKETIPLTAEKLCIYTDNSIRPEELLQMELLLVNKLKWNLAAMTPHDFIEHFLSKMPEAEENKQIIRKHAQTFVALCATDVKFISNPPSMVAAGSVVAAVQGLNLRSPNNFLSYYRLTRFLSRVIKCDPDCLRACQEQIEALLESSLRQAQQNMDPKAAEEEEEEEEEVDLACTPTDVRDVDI

| Compound | IC50 (Cdk2/cyclin E) [µM] | IC50 (Cdk4/cyclin D1) [µM] | IC50 (Cdc2/cyclin B) [µM] | IC50 (HCT-116 cells; [1]) [µM] | IC50 (HCT-116 cells; HCT-116, read-out: HCT-116 viability IC50) [µM] |
| --- | --- | --- | --- | --- | --- |
| CC(C)OC(=O)CN1CCN(NC(=O)Nc2cccc3c2C(=O)c2c-3n[nH]c2-c2ccc(OCCN3CCCC3)cc2)CC1 [Compound A40] | < 0.1 | < 0.1 | < 0.1 |  |  |
| CN(C)C(=O)CN1CCN(NC(=O)Nc2cccc3c2C(=O)c2c-3n[nH]c2-c2ccc(OCCN3CCCC3)cc2)CC1 [Compound A41] | < 0.1 | < 0.1 | < 1 |  |  |
| CC(C)c1nn(-c2c(Cl)cc(Cl)cc2Cl)c2nc(Cc3ccc(CN4CCN(C(C)C)CC4)n3C)[nH]c(=O)c12 [Compound A42] | < 0.1 | < 1 | < 1 | < 0.1 |  |
| CN1CCN(NC(=O)Nc2cccc3c2C(=O)c2c-3n[nH]c2-c2ccc(OCC(=O)N3CCCC3)cc2)CC1 [Compound A44] | < 0.1 | < 0.1 | < 0.01 |  |  |
| Cc1noc(COc2ccc(-c3[nH]nc4c3C(=O)c3c(NC(=O)NN5CCN(C)CC5)cccc3-4)cc2)n1 [Compound A45] | < 0.1 | < 0.1 | < 0.01 |  |  |
| O=C(Nc1cccc2c1C(=O)c1c-2n[nH]c1-c1ccc(OCC(=O)N2CCCC2)cc1)NN1CCOCC1 [Compound A46] | < 0.1 | < 1 | < 0.01 |  |  |
| CC(C)c1nn(-c2c(Cl)cc(Cl)cc2Cl)c2nc(Cc3ccc(NS(=O)(=O)CCCN4CCCCC4)cc3)[nH]c(=O)c12 [Compound A48] | < 0.1 |  | < 1 | < 0.1 |  |
| CC(C)c1nn(-c2c(Cl)cccc2Cl)c2nc(Cc3ccc(CN4CCN(C(C)C)CC4)c(O)c3)[nH]c(=O)c12 [Compound A50] | < 0.1 |  | < 1 | < 0.1 |  |
| O=C(Nc1cccc2c1C(=O)c1c-2n[nH]c1-c1ccc(S(=O)(=O)N2CCNCC2)cc1)NN1CCOCC1 [Compound A56] | < 0.1 | < 1 | < 0.1 |  |  |
| CC(C)N1CCN(S(=O)(=O)c2ccc(-c3[nH]nc4c3C(=O)c3c(NC(=O)NN5CCOCC5)cccc3-4)cc2)CC1 [Compound A57] | < 0.01 | < 0.1 | < 0.01 |  |  |
| Cc1nc(Cc2nc3c(c(C(C)C)nn3-c3c(Cl)cccc3Cl)c(=O)[nH]2)cs1 [Compound A58] | < 0.01 | < 10 | < 10 |  |  |
| CC(C)c1nn(-c2c(Cl)cccc2Cl)c2nc(Cc3ccc(OCCO)cc3)[nH]c(=O)c12 [Compound A59] | < 0.1 | < 1 | < 0.1 |  |  |
| CC(C)c1nn(-c2c(Cl)cccc2Cl)c2nc(Cc3ccc(OCCOC(=O)[C@@H](N)C(C)C)cc3)[nH]c(=O)c12 [Compound A60] | < 0.1 |  |  |  | < 0.1 |
| CCOC(=O)COc1ccc(-c2[nH]nc3c2C(=O)c2c(NC(=O)NN4CCOCC4)cccc2-3)cc1 [Compound A65] | < 0.1 | < 0.1 | < 0.01 |  |  |
| O=C(O)COc1ccc(-c2n[nH]c3c2C(=O)c2c(NC(=O)NN4CCOCC4)cccc2-3)cc1 [Compound A68] | < 0.01 | < 0.1 | < 0.1 |  |  |
